Measured values: US20260258035A1, “FIVE-MEMBERED AND SIX-MEMBERED NITROGEN-CONTAINING COMPOUND, AND INTERMEDIATE, PREPARATION METHOD AND USE THEREOF” (HANGZHOU SYNRX THERAPEUTICS BIOMEDICAL TECHNOLOGY CO., LTD., priority 2022, published 2026)
Like-named read-outs stand apart in the source and are kept apart here.

Key:
PARG = PARG (Homo sapiens, UniProt Q86W56); assay: Biochemical assay (PARG, TFMU-ADPr substrate)
HCC1806 = assay: Cell viability assay (CellTiter-Glo); type: cell-based, Human; details: HCC1806, 7 days, CellTiter-Glo, read-out: IC50 (nM) in cell viability assay
[1] = 4 nM PARG, 66.2 uM TFMU-ADPr, 3 min at room temperature

Chain of PARG (Q86W56 whole entry): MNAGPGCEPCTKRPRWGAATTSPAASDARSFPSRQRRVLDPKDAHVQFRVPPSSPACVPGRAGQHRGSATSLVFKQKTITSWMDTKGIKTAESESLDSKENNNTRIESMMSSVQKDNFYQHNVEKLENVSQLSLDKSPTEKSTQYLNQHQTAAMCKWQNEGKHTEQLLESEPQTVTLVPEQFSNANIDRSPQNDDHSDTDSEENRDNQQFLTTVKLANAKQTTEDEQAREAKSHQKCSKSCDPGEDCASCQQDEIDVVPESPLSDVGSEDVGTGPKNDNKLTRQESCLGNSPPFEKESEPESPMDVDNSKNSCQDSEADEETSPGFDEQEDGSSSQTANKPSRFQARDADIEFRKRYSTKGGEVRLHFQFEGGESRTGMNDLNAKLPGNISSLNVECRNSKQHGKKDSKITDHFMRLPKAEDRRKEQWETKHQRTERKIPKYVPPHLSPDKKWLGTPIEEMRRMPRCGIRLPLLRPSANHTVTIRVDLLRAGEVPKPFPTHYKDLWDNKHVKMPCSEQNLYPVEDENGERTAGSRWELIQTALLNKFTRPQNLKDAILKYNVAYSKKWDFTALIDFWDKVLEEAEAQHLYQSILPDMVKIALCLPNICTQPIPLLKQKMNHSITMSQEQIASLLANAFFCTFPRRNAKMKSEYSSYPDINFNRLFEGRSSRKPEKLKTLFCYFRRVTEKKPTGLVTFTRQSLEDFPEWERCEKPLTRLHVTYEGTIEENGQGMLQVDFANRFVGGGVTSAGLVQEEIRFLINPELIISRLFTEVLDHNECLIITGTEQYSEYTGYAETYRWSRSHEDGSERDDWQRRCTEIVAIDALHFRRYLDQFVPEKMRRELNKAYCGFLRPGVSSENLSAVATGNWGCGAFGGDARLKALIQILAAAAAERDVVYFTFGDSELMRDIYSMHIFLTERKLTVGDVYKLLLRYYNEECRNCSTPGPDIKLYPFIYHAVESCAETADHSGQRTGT

IC50 (PARG; PARG, TFMU-ADPr substrate) [nM]	IC50 (HCC1806; Homo sapiens, HCC1806, 168 h) [nM]	IC50 (PARG; [1]) [nM]	IC50 (HCC1806) [nM]	Compound
2.88	4390	–	–	N#CC1(NS(=O)(=O)c2cc(N3CCN(C(=O)C4(O)CC4)CC3)c3cnc(-c4nnc(C(F)(F)F)s4)n3c2)CC1 [Example 237, N-(1-cyanocyclopropyl)-8-(4-(1-hydroxycyclopropane-1-carbonyl)piperazin-1-yl)-3-(5-(trifluoromethyl)-1,3,4-thiadiazol-2-yl)imidazo[1,5-a]pyridine-6-sulfonamide]
13.8	900	–	–	CC(C)C(=O)N1CC=C(c2cc(S(=O)(=O)NC3(C#N)CC3)cn3c(-c4nnc(C(F)(F)F)s4)ncc23)CC1 [Example 368, N-(1-cyanocyclopropyl)-8-(1-isobutyryl-1,2,3,6-tetrahydropyridin-4-yl)-3-(5-(trifluoromethyl)-1,3,4-thiadiazol-2-yl)imidazo[1,5-a]pyridine-6-sulfonamide]
79.4	20000	–	–	N#CC1(NS(=O)(=O)c2cc(N3CCN(C(=O)[C@@H]4CCN4)CC3)c3cnc(-c4nnc(C(F)(F)F)s4)n3c2)CC1 [Example 269, (S)-8-(4-(azetidine-2-carbonyl)piperazin-1-yl)-N-(1-cyanocyclopropyl)-3-(5-(trifluoromethyl)-1,3,4-thiadiazol-2-yl)imidazo[1,5-a]pyridine-6-sulfonamide]
0.14	9.06	–	–	COC1(C(=O)N2CCN(c3cc(S(=O)(=O)NC4(C)CC4)cn4c(-c5nnc(C(F)F)s5)ncc34)C[C@H]2CO)CC1 [Example 201, (S)-3-(5-(difluoromethyl)-1,3,4-thiadiazol-2-yl)-8-(3-(hydroxymethyl)-4-(1-methoxycyclopropane-1-carbonyl)piperazin-1-yl)-N-(1-methylcyclopropyl)imidazo[1,5-a]pyridine-6-sulfonamide]
110	3000	–	–	CN(C)C(=O)C1CCN(c2cc(S(=O)(=O)NC3(C#N)CC3)cn3c(-c4nnc(C(F)F)s4)ncc23)CC1 [Example 212, 1-(6-(N-(1-cyanocyclopropyl)sulfamoyl)-3-(5-(difluoromethyl)-1,3,4-thiadiazol-2-yl)imidazo[1,5-a]pyridin-8-yl)-N,N-dimethylpiperidine-4-carboxamide]
< 0.15	17.6	–	–	CN(C)CCOC1(C(=O)N2CCN(c3cc(S(=O)(=O)NC4(C)CC4)cn4c(-c5nnc(C(F)(F)F)s5)ncc34)CC2)CC1 [Example 384, 8-(4-(1-(2-(dimethylamino)ethoxy)cyclopropane-1-carbonyl)piperazin-1-yl)-N-(1-methylcyclopropyl)-3-(5-(trifluoromethyl)-1,3,4-thiadiazol-2-yl)imidazo[1,5-a]pyridine-6-sulfonamide]
15.3	561	–	–	CC1(NS(=O)(=O)c2cc(N3CCN(C(=O)[C@H]4CC(F)(F)CN4)CC3)c3cnc(-c4nnc(C(F)(F)F)s4)n3c2)CC1 [Example 352, (R)-8-(4-(4,4-difluoropyrrolidine-2-carbonyl)piperazin-1-yl)-N-(1-methylcyclopropyl)-3-(5-(trifluoromethyl)-1,3,4-thiadiazol-2-yl)imidazo[1,5-a]pyridine-6-sulfonamide]
1.84	363	–	–	CNC1(C(=O)N2CCN(c3cc(S(=O)(=O)NC4(C)CC4)cn4c(-c5nnc(C(F)(F)F)s5)ncc34)CC2)CC1 [Example 318, 8-(4-(1-(methylamino)cyclopropane-1-carbonyl)piperazin-1-yl)-N-(1-methylcyclopropyl)-3-(5-(trifluoromethyl)-1,3,4-thiadiazol-2-yl)imidazo[1,5-a]pyridine-6-sulfonamide]
31.6	< 500	< 100	264	CC1(C(=O)N2CCN(c3cc(S(=O)(=O)NC4(C#N)CC4)cn4c(-c5nnc(C(F)F)s5)ncc34)CC23CC3)CC1 [Example 91, N-(1-cyanocyclopropyl)-3-(5-(difluoromethyl)-1,3,4-thiadiazol-2-yl)-8-(4-(1-methylcyclopropane-1-carbonyl)-4,7-diazaspiro[2.5]octan-7-yl)imidazo[1,5-a]pyridine-6-sulfonamide]
0.63	54.6	–	–	COC1(C(=O)N2CCN(c3cc(S(=O)(=O)NC4(C)CC4)cn4c(-c5nnc(C(F)F)s5)ncc34)C[C@H]2CF)CC1 [Example 200, (S)-3-(5-(difluoromethyl)-1,3,4-thiadiazol-2-yl)-8-(3-(fluoromethyl)-4-(1-methoxycyclopropane-1-carbonyl)piperazin-1-yl)-N-(1-methylcyclopropyl)imidazo[1,5-a]pyridine-6-sulfonamide]
66.1	3070	–	–	O=C(C1COC1)N1CCN(c2cc(S(=O)(=O)NC3CC3)cn3c(-c4nnc(C(F)(F)F)s4)ncc23)CC1 [Example 217, N-cyclopropyl-8-(4-(oxetane-3-carbonyl)piperazin-1-yl)-3-(5-(trifluoromethyl)-1,3,4-thiadiazol-2-yl)imidazo[1,5-a]pyridine-6-sulfonamide]
0.5	85	–	–	C[C@H]1CN(c2cc(S(=O)(=O)NC3(C)COC3)cn3c(-c4nnc(C(F)(F)F)s4)ncc23)C[C@H](C)O1 [Example 355, 8-((2S,6S)-2,6-dimethylmorpholino)-N-(3-methyloxetan-3-yl)-3-(5-(trifluoromethyl)-1,3,4-thiadiazol-2-yl)imidazo[1,5-a]pyridine-6-sulfonamide]
0.44	78.1	–	–	CC(C)C(=O)N1CCN(c2cc(S(=O)(=O)NC3(C)CC3)cn3c(-c4nnc(C(F)F)s4)ncc23)C[C@H]1CO [Example 331, (S)-3-(5-(difluoromethyl)-1,3,4-thiadiazol-2-yl)-8-(3-(hydroxymethyl)-4-isobutyrylpiperazin-1-yl)-N-(1-methylcyclopropyl)imidazo[1,5-a]pyridine-6-sulfonamide]
39.8	2820	–	–	CC(C)N1CC(C(=O)N2CCN(c3cc(S(=O)(=O)NC4(C#N)CC4)cn4c(-c5nnc(C(F)F)s5)ncc34)C[C@H]2C)C1 [Example 295, (R)-N-(1-cyanocyclopropyl)-3-(5-(difluoromethyl)-1,3,4-thiadiazol-2-yl)-8-(4-(1-isopropylazetidine-3-carbonyl)-3-methylpiperazin-1-yl)imidazo[1,5-a]pyridine-6-sulfonamide]
24	4180	–	–	N#CC1(NS(=O)(=O)c2cc(N3CCN(C(=O)C(F)F)CC3)c3cnc(-c4nnc(C(F)(F)F)s4)n3c2)CC1 [Example 241, N-(1-cyanocyclopropyl)-8-(4-(2,2-difluoroacetyl)piperazin-1-yl)-3-(5-(trifluoromethyl)-1,3,4-thiadiazol-2-yl)imidazo[1,5-a]pyridine-6-sulfonamide]
0.23	23.5	–	–	[2H]c1nc(-c2nnc(C(F)F)s2)n2cc(S(=O)(=O)NC3(C)COC3)cc(N3C[C@H](C)N[C@@H](C)C3)c12 [Example 160, 3-(5-(difluoromethyl)-1,3,4-thiadiazol-2-yl)-8-((3S,5S)-3,5-dimethylpiperazin-1-yl)-N-(3-methyloxetan-3-yl)imidazo[1,5-a]pyridine-6-sulfonamide-1-d]
28.2	5000 to 30000	< 100	5000	CC(C)C(=O)N1CCN(c2cc(S(=O)(=O)NC3(CF)COC3)cn3c(-c4nnc(C(F)F)s4)nnc23)CC1 [Example 106, 3-(5-(difluoromethyl)-1,3,4-thiadiazol-2-yl)-N-(3-(fluoromethyl)oxetan-3-yl)-8-(4-isobutyrylpiperazin-1-yl)-[1,2,4]triazolo[4,3-a]pyridine-6-sulfonamide]
20	2130	–	–	CC(C)C(=O)N1CC2(C=C(c3nc(-c4nnc(C(F)(F)F)s4)n4cc(S(=O)(=O)NC5(C#N)CC5)ccc34)CC2)C1 [Example 389, N-(1-cyanocyclopropyl)-1-(2-isobutyryl-2-azaspiro[3.4]oct-5-en-6-yl)-3-(5-(trifluoromethyl)-1,3,4-thiadiazol-2-yl)imidazo[1,5-a]pyridine-6-sulfonamide]
0.19	6.58	–	–	COC1(C(=O)N2CCN(c3cc(S(=O)(=O)NC4(C)CC4)cn4c(-c5nnc(C(F)F)s5)ncc34)C[C@H]2C)CC1 [Example 197, (R)-3-(5-(difluoromethyl)-1,3,4-thiadiazol-2-yl)-8-(4-(1-methoxycyclopropane-1-carbonyl)-3-methylpiperazin-1-yl)-N-(1-methylcyclopropyl)imidazo[1,5-a]pyridine-6-sulfonamide]
0.99	28	–	–	CN(C)C(=O)N1CCN(c2cc(S(=O)(=O)NC3(C)COC3)cn3c(-c4nnc(C(F)F)s4)nc(Cl)c23)CC1 [Example 128, 4-(1-chloro-3-(5-(difluoromethyl)-1,3,4-thiadiazol-2-yl)-6-(N-(3-methyloxetan-3-yl)sulfamoyl)imidazo[1,5-a]pyridin-8-yl)-N,N-dimethylpiperazine-1-carboxamide]
1.66	122	–	–	Cc1nc(-c2nnc(C(F)F)s2)n2cc(S(=O)(=O)NC3(C#N)CC3)cc(N3CCN(C(=O)C(C)C)CC3)c12 [Example 170, N-(1-cyanocyclopropyl)-3-(5-(difluoromethyl)-1,3,4-thiadiazol-2-yl)-8-(4-isobutyrylpiperazin-1-yl)-1-methylimidazo[1,5-a]pyridine-6-sulfonamide]
0.27	65.8	–	–	C[C@H]1CN(c2cc(S(=O)(=O)NC3(C)COC3)cn3c(-c4nnc(C(F)F)s4)ncc23)C[C@H](C)O1 [Example 354, 3-(5-(difluoromethyl)-1,3,4-thiadiazol-2-yl)-8-((2S,6S)-2,6-dimethylmorpholino)-N-(3-methyloxetan-3-yl)imidazo[1,5-a]pyridine-6-sulfonamide]
6.31	158	–	–	CCNC(=O)N1CCN(c2cc(S(=O)(=O)NC3(C)COC3)cn3c(-c4nnc(C(F)(F)F)s4)ncc23)CC1 [Example 362, N-ethyl-4-(6-(N-(3-methyloxetan-3-yl)sulfamoyl)-3-(5-(trifluoromethyl)-1,3,4-thiadiazol-2-yl)imidazo[1,5-a]pyridin-8-yl)piperazine-1-carboxamide]
